Experimental data from paper PMC5617480 (Oncotarget, 2017).

Assays:
[1] = test system: hTERT and c-myc; assay: Western blot and RT-PCR of hTERT and c-myc in BEL-7404 cells; format: cell-based, human; details: BEL-7404, 10 μM, 24 h, compared to complexes 4 and 5
Method: To further investigate the mechanism(s) how chiral platinum(II) complexes regulate telomerase activity, two genes (hTERT and c-myc) critically associated with telomerase activation were investigated. BEL-7404 cells were treated with chiral platinum(II) complexes 4–6 at 10 μM for 24 h, and then western blot and RT-PCR were performed to exam the expression of hTERT and c-myc at mRNA and protein levels. […] We further generated a GFP reporter system linked with c-myc or hTRET promotor which bears G4 DNA sequence. The reporter plasmids were transfected into BEL-7404 cells, and then the cells were treated with 10 μM chiral platinum(II) complexes for 24 h.
Apoptosis analysis c-myc antibody, or anti-β-actin primary antibody and the Apoptosis was detected by flow cytometric analysis corresponding secondary antibody were used to detect of annexin V staining. […] Then, cells were incubated with annexin V-FITC and PI for 1.0 h at Staining for SA-β-Gal activity was carried out room temperature in the dark and immediately analyzed according to Moore and Chen reports. […] The data are presented as biparametric After the long-term incubation with complexes 4–6, the dot plots showing PI red fluorescence vs annexin V-FITC growth medium was aspirated and the BEL-7404 cells green fluorescence. were fixed in 2% formaldehyde/0.2% glutaraldehyde for 15.0 min at room temperature. […]

[2] = test system: TRF1, mutp53, hTERT, TRF2, c-myc, and 53BP1; assay: Western blot in BEL-7404 xenograft models; format: in vivo, BALB/c nude mice; details: 8 mg/kg and 4 mg/kg
Method: (E–H) In vivo tumor growth inhibition activity of complex 6 (4.0, 8.0 mg/kg/d) treated of BEL-7402 model with 4.0 and 8.0 mg/kg/d, comparing with cisplatin (2 mg/kg/2 days). (A) and (E). Changes in tumor volume between treatment groups (including complex 6 (4.0, 8.0 mg/kg/d), 5-FU (20 mg/kg/2 days) or cisplatin (2 mg/kg/2 days)) and vehicle (saline) group of BEL-7404 tumor-bearing mice and BEL-7402 tumor-bearing mice. Data of tumor growth were tracked by the mean tumor volume (mm^3) ± SD (n = 6) and calculated as percent TGI (tumor growth inhibition, %) values. (B and F) Relative body weight change by considering the body weight at the start of the treated group as 100%, the percent weight loss or gain was calculated on subsequent days of treatment. (C) and (G) Tumor weight between treatment groups and vehicle (saline) group of BEL-7404 tumor-bearing mice and BEL-7402 tumor-bearing mice. […] (I) The expression protein level of TRF1, mutp53, hTERT, TRF2, c-myc, and 53BP1 were analyzed by western blot in BEL-7404 xenograft models treated with 8 mg/kg and 4 mg/kg complex 6, and 20 mg/kg 5-FU, respectively. (J) The whole-BEL-7404 xenograft model extracts were prepared and analyzed by Western blot analysis using antibodies against TRF1, mutp53, hTERT, TRF2, c-myc, and 53BP1. […] Western blotting bands from three independent measurements were quantified with Image J. in (I). […]

cis-[PtCl2(S-(–)-FOA)] [complex 6]
expression of hTERT and c-myc at mRNA and protein levels [1]: significantly attenuate
expression of mutp53, c-myc, and hTERT [2]: down-regulated
protein expression of TRF1, TRF2, and 53BP1 [2]: significantly up-regulated
